Experimental data taken from publication PMC10648598, “Physiologic and Transcriptomic Effects Triggered by Overexpression of Wild Type and Mutant DNA Topoisomerase I in Streptococcus pneumoniae” (International Journal of Molecular Sciences, 2023).

Target: T1, TopoI (TopoIWT) (Streptococcus pneumoniae, UniProt Q8DPI9)
T1 construct: gene topA
Assay: biochemical

T1 sequence (Q8DPI9 1-701): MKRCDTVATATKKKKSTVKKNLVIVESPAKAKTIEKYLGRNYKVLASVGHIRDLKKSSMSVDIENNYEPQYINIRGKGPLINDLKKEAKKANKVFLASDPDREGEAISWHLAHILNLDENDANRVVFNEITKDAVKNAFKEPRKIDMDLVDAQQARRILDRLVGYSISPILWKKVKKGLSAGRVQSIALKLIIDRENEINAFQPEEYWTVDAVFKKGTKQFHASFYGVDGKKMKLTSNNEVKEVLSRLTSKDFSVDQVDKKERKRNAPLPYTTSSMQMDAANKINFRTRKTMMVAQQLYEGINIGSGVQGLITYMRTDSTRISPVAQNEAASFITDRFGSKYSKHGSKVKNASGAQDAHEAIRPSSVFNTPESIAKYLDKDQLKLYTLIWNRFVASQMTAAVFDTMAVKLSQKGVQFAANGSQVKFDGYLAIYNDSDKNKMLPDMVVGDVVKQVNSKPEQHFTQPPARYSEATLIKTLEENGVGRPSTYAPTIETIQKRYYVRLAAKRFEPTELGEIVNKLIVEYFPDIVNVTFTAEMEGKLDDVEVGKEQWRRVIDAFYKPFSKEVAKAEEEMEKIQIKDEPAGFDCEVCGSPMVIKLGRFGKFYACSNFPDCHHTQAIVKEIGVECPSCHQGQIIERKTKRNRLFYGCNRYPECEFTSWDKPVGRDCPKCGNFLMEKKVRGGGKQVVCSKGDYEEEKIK

Q: Which IC50 does the source give for `CNCCc1cc2c(c3c1ccc1cc4c(cc13)OCO4)OCO2` [SCN, Seconeolitsine] here?
A: 6.8 ± 2 µM
